Key:
5-lipoxygenase [1] = biological target: T1, 5-lipoxygenase (Cavia porcellus, UniProt A0A286X958); assay: Inhibition of 5-HETE and LTB4 synthesis in A-23187-stimulated guinea pig polymorphonuclear leukocytes; type: cell-based; conditions: read-out: IC50 for inhibition of the formation of 5-HETE and leukotriene B4 (LTB4)
T1 construct: A-23187-stimulated guinea pig polymorphonuclear leukocytes; endogenous in cells; host or cells: guinea pig polymorphonuclear leukocytes
T1 sequence (A0A286X958 1-674): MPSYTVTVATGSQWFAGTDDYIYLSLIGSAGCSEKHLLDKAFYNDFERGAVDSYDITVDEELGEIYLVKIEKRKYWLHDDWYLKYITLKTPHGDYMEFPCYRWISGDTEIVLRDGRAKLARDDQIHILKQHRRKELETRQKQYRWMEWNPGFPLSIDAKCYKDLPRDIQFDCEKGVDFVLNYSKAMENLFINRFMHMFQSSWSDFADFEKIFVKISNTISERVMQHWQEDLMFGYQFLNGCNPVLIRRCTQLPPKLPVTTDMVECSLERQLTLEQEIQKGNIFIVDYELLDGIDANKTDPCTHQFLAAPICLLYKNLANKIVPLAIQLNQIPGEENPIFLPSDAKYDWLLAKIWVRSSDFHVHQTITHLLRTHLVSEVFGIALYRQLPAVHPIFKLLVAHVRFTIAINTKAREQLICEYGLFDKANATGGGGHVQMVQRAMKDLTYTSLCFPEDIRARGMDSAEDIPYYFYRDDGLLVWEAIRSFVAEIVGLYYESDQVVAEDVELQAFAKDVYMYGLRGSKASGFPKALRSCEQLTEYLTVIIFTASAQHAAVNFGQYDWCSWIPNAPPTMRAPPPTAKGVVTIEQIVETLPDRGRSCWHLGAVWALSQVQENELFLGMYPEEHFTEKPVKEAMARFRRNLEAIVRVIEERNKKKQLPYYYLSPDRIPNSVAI
Protocol: 5-Lipoxygenase inhibition is determined e.g. by measuring the percent inhibition of the synthesis of 5-HETE [(5S)-5-hydroxy-6,8,11,14-eicosa-tetraenoic acid] and leukotriene B4 (LTB4, 5,12-dihydroxy-6,8,10,14-eicosatetraenoic acid) in A-23187-stimulated guinea pig polymorphonuclear leukocytes, essentially according to radiometric thin-layer chromatographic assays described by Walker and Dawson (J. Pharm. Pharmacol. 31: 778, 1979) and Jakschik and Lee (Nature 287: 51, 1980) to measure the formation of 5-HETE and LTB4 -like products from ^14 C-arachidonic acid. IC50 values are determined graphically as the concentration of test compound at which the synthesis of 5-HETE and LTB4 -like products is reduced to 50% of their respective control values.

5-lipoxygenase [2] = assay: Ex vivo A-23187-stimulated LTB4 formation in whole blood after oral administration; conditions: dog, about 0.3 mg/kg p.o.
Protocol: Furthermore, the inhibition of 5-lipoxygenase is determined after oral or i.v. administration to rats or dogs by measuring ex vivo in whole blood the decrease of A-23187-stimulated LTB4 formation as compared to non-treated control animals.

[3] = tested on: rat pleurisy model of inflammation; assay: Carrageenin-induced pleurisy model of inflammation; type: in vivo; conditions: 10 mg/kg p.o. at -1, 6, 24 and 45 hours relative to carrageenin injection, 48 hours after injection
Source text: 214, 74 (1980), in particular during the late phase of the corrageenin-induced pleurisy.

[4] = tested on: rat chronic colitis model; assay: Trinitrobenzenesulfonic acid-induced chronic colitis model; type: in vivo; conditions: 100 mg/kg p.o. for 4 days
Source text: The trinitrobenzenesulfonic acid-induced chronic colitis test in the rat, e.g. as described by Wallace et al, Gastroenterology 1989, 96, 29-36, can be used to evaluate compounds for effects indicative of utility in inflammatory bowel diseases.

For `NC(=O)N(O)CC1=Cc2cc(Oc3ccccc3)ccc2OC1` [2(d), 3-[(N-Aminocarbonyl-N-hydroxy)aminomethyl]-6-phenoxy-2H-1-benzopyran], the IC50 (5-lipoxygenase [1]) was about 50 nM, the “inhibition of LTB4 formation as determined ex vivo” value (5-lipoxygenase [2]) was “significant inhibition” and the “cell count of leukocytes” value [3] was “lower”. For the same compound, the “inhibition of exudate volume” value [3] was “inhibition” and the inhibition of colitis [4] was “inhibits colitis”.
For `CNC(=O)N(O)CC1=Cc2cc(Oc3ccc(F)cc3)ccc2OC1` [5(f), 3-[{N-(N'-methylaminocarbonyl)-N-hydroxy}aminomethyl]-6-(p-fluorophenoxy)-2H-1-benzopyran], the “inhibition of LTB4 formation as determined ex vivo” value (5-lipoxygenase [2]) was “significant inhibition”, the “cell count of leukocytes” value [3] was “lower” and the “inhibition of exudate volume” value [3] was “inhibition”.
